{
  "source": "patent US9504729B2",
  "about": "“Antiangiogenic small molecules and methods of use” (The United States of America, as represented by the …, priority 2009, dated 2016)",
  "key": {"in vitro": {"assay": "in vitro", "details": "pig"}, "endothelial cells": {"tested_on": "endothelial cells", "assay": "Primary screening: cell-based growth HTS and tube formation HTS (bioactivity class)"}, "SK-ML-1 tumors [1]": {"tested_on": "SK-ML-1 tumors", "assay": "SK-ML-1 tumor xenograft", "details": "100 μl of 10 μM IP, three times a week for four weeks"}, "PAE cells [2]": {"tested_on": "PAE cells", "assay": "Growth dose response (IC50) in PAE", "format": "cell-based, porcine", "details": "Sus scrofa, read-out: Growth IC50 (M) in PAE", "text": "FIG. 6: Dose response curves were constructed for all the SMs of interest using PAE cells. Data were fitted to non-linear sigmoid curves using GraphPad Prism (GraphPad Software, Inc., La Jolla, Calif.).\nDose response curves were constructed for all the SM of interest using PAE cells. Data were fitted to non-linear sigmoid curves using GraphPad Prism (GraphPad software, Inc.)."}, "PAE cells [3]": {"tested_on": "PAE cells", "assay": "Fluorescence-release cytotoxicity assay", "details": "endothelial cells"}, "PAE cells [4]": {"tested_on": "PAE cells"}, "KDR(VEGFR2)": {"biological_target": "KDR(VEGFR2) (Homo sapiens, UniProt P35968)", "sequence (P35968 20-1356)": "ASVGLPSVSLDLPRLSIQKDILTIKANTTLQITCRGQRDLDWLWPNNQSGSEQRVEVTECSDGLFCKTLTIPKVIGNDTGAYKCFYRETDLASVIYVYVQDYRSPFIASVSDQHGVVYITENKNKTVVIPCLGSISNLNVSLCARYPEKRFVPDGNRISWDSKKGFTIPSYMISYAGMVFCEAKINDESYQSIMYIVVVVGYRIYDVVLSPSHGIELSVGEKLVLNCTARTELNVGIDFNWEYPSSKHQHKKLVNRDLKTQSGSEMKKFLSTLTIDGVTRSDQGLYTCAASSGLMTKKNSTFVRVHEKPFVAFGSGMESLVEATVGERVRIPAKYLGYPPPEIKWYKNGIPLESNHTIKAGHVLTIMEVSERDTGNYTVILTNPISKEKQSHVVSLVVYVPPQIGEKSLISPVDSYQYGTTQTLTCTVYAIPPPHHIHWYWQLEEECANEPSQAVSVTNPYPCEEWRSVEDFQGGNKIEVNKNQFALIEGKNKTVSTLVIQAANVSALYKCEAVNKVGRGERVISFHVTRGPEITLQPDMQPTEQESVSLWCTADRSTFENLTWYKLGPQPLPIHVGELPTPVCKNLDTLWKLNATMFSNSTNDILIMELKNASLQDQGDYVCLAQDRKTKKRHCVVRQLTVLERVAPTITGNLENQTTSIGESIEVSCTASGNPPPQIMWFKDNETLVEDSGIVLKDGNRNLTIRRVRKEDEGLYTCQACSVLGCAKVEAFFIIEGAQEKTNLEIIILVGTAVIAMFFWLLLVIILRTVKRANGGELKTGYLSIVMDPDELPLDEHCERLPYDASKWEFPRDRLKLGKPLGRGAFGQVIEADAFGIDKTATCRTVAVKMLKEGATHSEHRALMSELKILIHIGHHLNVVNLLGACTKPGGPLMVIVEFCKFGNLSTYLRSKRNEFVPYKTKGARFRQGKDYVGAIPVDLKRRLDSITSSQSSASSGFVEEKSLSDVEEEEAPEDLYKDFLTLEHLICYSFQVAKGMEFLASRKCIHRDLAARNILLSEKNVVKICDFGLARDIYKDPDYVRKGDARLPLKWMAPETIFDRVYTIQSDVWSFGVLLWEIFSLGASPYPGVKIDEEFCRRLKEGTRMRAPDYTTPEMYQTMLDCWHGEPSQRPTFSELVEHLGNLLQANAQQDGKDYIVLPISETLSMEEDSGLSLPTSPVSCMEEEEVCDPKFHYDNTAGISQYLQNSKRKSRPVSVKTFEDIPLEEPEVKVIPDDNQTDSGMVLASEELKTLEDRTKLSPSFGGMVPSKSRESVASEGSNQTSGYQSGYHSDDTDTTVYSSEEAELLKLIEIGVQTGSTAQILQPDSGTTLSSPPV", "assay": "SelectScreen kinase activity profiling, KDR(VEGFR2)", "format": "biochemical", "details": "VEGFR2 receptor", "text": "To characterize the RTK inhibitory activity of the antiangiogenic SMs described herein, 36 compounds were chosen and screened using Invitrogen's SelectScreen® kinase activity profiling service (described on-line at tools.invitrogen.com/content.cfm?pageid=10413#selection). VEGFR1 and FGFR2 RTK inhibitory activities were studied. […] Overall, a small minority of the SMs tested had any substantial kinase inhibitory activity. This observation supports a mechanism of antiangiogenic action other than RTK inhibition for most of the SMs described herein."}, "A549 tumors": {"tested_on": "A549 tumors", "details": "positive control; cited from earlier work"}, "SK-ML-1 tumors [5]": {"tested_on": "SK-ML-1 tumors", "details": "positive control; cited from earlier work"}},
  "note": "Where two headings read alike, the source gives them in different places.",
  "data": [
    {"compound": "Cl.O=C1C(=Cc2ccccc2)C(NC2CCCCC2)c2ccccc21", "note": "(centres unmarked) [Compound 67, 2-benzylidene-3-(cyclohexylamino)-3H-inden-1-one chloride]", "values": [
      {"measurement": "cytotoxicity", "setting": "in vitro", "value": 7.78, "unit": "%"},
      {"measurement": "type of inhibition (endothelial cell growth and/or tube formation)", "setting": "endothelial cells; 1 μM", "value": "inhibited both endothelial cell growth and tube formation"},
      {"measurement": "type of inhibition (endothelial cell growth and/or tube formation)", "setting": "endothelial cells; 1 μM, listed as NSC 150117", "value": "tube formation+growth"},
      {"measurement": "inhibition of tumor growth, SK-ML-1 xenograft", "setting": "SK-ML-1 tumors [1]", "value": "potencies similar to AVASTIN®"},
      {"measurement": "IC50", "setting": "PAE cells [2]; PAE cells", "value": "9.16e-11", "unit": "M"},
      {"measurement": "cytotoxicity (in words)", "setting": "PAE cells [3]", "value": "without cytotoxicity"}
    ]},
    {"compound": "O=[As](O)(O)c1ccc(Cc2ccc([As](=O)(O)O)cc2)cc1", "note": "[Compound 69, [4-[(4-arsonophenyl)methyl]phenyl]arsonic acid]", "values": [
      {"measurement": "cytotoxicity", "setting": "in vitro", "value": 8.26, "unit": "%"},
      {"measurement": "cytotoxicity (in words)", "setting": "PAE cells [4]", "value": "without cytotoxicity"},
      {"measurement": "RTK inhibitory activity (in words)", "setting": "KDR(VEGFR2)", "value": "showed RTK inhibitory activity"},
      {"measurement": "type of inhibition (endothelial cell growth and/or tube formation)", "setting": "endothelial cells", "value": "inhibited both endothelial cell growth and tube formation"},
      {"measurement": "inhibition of tumor growth, SK-ML-1 xenograft", "setting": "SK-ML-1 tumors [1]", "value": "potencies similar to AVASTIN®"},
      {"measurement": "IC50", "setting": "PAE cells [2]; PAE", "value": "3.84e-10", "unit": "M"}
    ]},
    {"compound": "AVASTIN®: monoclonal antibody directed against an isoform of VEGF, marketed under the trade name Avastin®; known antiangiogenic drug, positive control", "values": [
      {"measurement": "inhibition of growth of A549 (previously shown)", "setting": "A549 tumors", "value": "significantly inhibit"},
      {"measurement": "inhibition of growth of SK-ML-1 (previously shown)", "setting": "SK-ML-1 tumors [5]", "value": "significantly inhibit"}
    ]}
  ]
}
